Test results taken from ChEMBL document CHEMBL2010677, “Anti-inflammatory and PPAR transactivational effects of secondary metabolites from the roots of Asarum sieboldii” (Bioorg Med Chem Lett, 2012).

Key:
[1] = (§1) Transactivation of PPAR expressed in HepG2 cells after 20 hrs by luminescence assay; format: cell-based; conditions: HepG2, 20 h
[2] = target: T1, Peroxisome proliferator-activated receptor delta (Homo sapiens, UniProt Q03181); assay: Transactivation of GAL4-fused PPARbeta LBD expressed in HepG2 cells after 20 hrs by luminescence assay; format: cell-based
T1 sequence (Q03181 whole entry): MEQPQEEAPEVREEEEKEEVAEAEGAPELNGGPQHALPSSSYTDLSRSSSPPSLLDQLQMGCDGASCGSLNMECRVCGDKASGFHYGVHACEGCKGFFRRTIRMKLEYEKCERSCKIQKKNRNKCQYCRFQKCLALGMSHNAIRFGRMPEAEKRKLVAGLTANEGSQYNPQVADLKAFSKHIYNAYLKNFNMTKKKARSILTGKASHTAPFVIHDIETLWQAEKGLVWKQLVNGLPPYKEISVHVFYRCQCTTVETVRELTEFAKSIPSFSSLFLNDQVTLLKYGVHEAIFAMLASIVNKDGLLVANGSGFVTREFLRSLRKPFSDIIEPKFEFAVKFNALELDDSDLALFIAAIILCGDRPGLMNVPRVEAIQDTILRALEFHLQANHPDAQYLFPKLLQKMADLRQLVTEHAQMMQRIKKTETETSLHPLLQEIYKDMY

[3] = target: T2, Peroxisome proliferator-activated receptor gamma (Homo sapiens, UniProt P37231); assay: Transactivation of GAL4-fused PPARgamma LBD expressed in HepG2 cells after 20 hrs by luminescence assay; format: cell-based
T2 sequence (P37231 whole entry): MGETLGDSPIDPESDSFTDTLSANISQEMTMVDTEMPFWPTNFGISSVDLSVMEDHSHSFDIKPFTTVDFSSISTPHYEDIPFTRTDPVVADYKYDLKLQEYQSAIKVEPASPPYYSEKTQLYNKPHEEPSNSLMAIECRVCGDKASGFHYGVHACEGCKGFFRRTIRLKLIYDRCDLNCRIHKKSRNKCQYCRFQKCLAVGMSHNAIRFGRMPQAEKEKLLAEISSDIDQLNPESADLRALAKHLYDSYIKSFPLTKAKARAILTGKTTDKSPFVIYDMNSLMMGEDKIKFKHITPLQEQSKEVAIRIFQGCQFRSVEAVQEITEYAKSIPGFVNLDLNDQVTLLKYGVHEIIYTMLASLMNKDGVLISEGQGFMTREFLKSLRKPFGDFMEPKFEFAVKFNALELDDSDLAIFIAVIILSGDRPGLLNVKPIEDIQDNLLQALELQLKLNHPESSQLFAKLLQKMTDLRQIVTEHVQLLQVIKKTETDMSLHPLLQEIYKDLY

[4] = target: T3, Peroxisome proliferator-activated receptor alpha (Homo sapiens, UniProt Q07869); assay: (§2) Transactivation of GAL4-fused PPARalpha LBD expressed in HepG2 cells after 20 hrs by luminescence assay; format: cell-based
T3 sequence (Q07869 whole entry): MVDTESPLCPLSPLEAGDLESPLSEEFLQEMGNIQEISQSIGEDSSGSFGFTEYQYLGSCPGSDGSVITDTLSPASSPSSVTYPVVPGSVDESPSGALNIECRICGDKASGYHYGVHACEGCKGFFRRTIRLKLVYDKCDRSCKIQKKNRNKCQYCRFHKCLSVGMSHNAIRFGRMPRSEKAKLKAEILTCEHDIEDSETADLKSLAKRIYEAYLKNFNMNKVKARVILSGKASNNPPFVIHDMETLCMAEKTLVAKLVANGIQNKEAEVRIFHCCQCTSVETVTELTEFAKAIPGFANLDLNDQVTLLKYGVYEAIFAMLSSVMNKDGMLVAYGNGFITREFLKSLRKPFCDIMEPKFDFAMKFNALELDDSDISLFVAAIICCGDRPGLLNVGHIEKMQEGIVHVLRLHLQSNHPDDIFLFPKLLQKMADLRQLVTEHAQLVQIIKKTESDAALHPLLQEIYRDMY

HepG2 [5] = assay: Inhibition of NFkappaB-mediated iNOS mRNA expression in human TNFalpha-stimulated human HepG2 cells pretreated for 1 hr before TNFalpha challenge measured after 6 hrs by RT-PCR analysis; format: cell-based
[6] = Inhibition of TNFalpha-induced NFkappaB transcriptional activity in human HepG2 cells pretreated for 1 hr before TNFalpha challenge by luciferase reporter gene analysis
HepG2 [7] = assay: Cytotoxicity against human HepG2 cells by MTT assay; format: cell-based
HepG2 [8] = assay: Inhibition of NFkappaB-mediated COX2 mRNA expression in human TNFalpha-stimulated human HepG2 cells by RT-PCR analysis; format: cell-based
[9] = target: T4, Peroxisome proliferator-activated receptor alpha (Homo sapiens) (UniProt Q07869); assay: as §2; format: cell-based
T4 sequence (whole entry): T3 sequence (Q07869 whole entry)

HepG2 [10] = assay: as §1; format: cell-based

Structure (SMILES)	EC50 [1] [µM]	EC50 [2] [µM]	EC50 [3] [µM]	EC50 [4] [µM]	inhibition (HepG2 [5])	IC50 [6] [µM]	Activity (HepG2 [7])	inhibition (HepG2 [8])	Activity [9]	Activity (HepG2 [10])
CC=C/C=C\CC/C=C/C=C/C(=O)NCC(C)C	58.6	51.1	52.3	46.1	Dose-dependent effect	6.4	Non-toxic	Dose-dependent effect		
CC(C)(Oc1ccc(CCNC(=O)c2ccc(Cl)cc2)cc1)C(=O)O [BEZAFIBRATE]	1.05									
C/C=C\CC/C=C/C=C/C(=O)NCC(C)C	2	4.9	3.6	4			Non-toxic		Dose-dependent effect	
CCCc1c(OCCCOc2ccc(OCC(=O)O)cc2)ccc(C(C)=O)c1O		0.64								
CC1=CC(=O)C2C(C1=O)C2(C)C (racemic)	> 60						Non-toxic			
CC(C)(O)C1=C[C@@H](O)[C@@](C)(O)CC1	4.3	48.5	21.7	19.5			Non-toxic		Dose-dependent effect	
COc1ccc([C@@H](O)[C@H](O)CO)cc1OC	20.3	22.6	19.3	15.7			Non-toxic		Dose-dependent effect	
c1cc2c(cc1[C@H]1OC[C@H]3[C@@H]1CO[C@H]3c1ccc3c(c1)OCO3)OCO2 [ASARININ]	> 60				Dose-dependent effect	7.1	Non-toxic	Dose-dependent effect		
c1cc2c(cc1[C@H]1OC[C@H]3[C@@H]1CO[C@@H]3c1ccc3c(c1)OCO3)OCO2 [SESAMIN]	> 60				Dose-dependent effect	9.4	Non-toxic	Dose-dependent effect		
COc1cc([C@H]2OC[C@H]3[C@@H]2CO[C@H]3c2ccc3c(c2)OCO3)cc(OC)c1O	6.2	47.6	22.6	> 60			Non-toxic			
O=C(O)c1cc(/N=N/c2ccc(S(=O)(=O)Nc3ccccn3)cc2)ccc1O [SULFASALAZINE]						0.9				
COc1cc([C@@H]2OC[C@@H]3[C@H]2CO[C@H]3c2ccc3c(c2)OCO3)ccc1O [PIPERITOL]	20.9	33.9	18.9	53.2			Non-toxic			
CC(C)(Oc1ccc(C2CC2(Cl)Cl)cc1)C(=O)O (stereo not drawn) [CIPROFIBRATE]				0.9						
COc1cc([C@H]2OC[C@@H]3[C@H]2CO[C@H]3c2ccc3c(c2)OCO3)ccc1O [PLUVIATILOL]	1.7	53.1	48.7	> 60			Non-toxic			
C=CCc1ccc(OC)c(OC)c1 [METHYLEUGENOL]	28	50.6	40	46.5			Non-toxic			
COc1cc([C@H]2OC[C@H]3[C@@H]2CO[C@H]3c2ccc(O)c(OC)c2)ccc1O [PINORESINOL]	10.3	49.5	58.6	> 60			Non-toxic			Dose-dependent effect
